Test results: patent US20230278972A1, “SUBSTITUTED HALOALKYL SULFONANILIDE HERBICIDES” (FMC Corporation, priority 2020, published 2023)

Experiments:
Format in all cases: in vivo
[1] = test system: barnyardgrass (Echinochloa crus-galli); experiment: Test A preemergence, barnyardgrass; details: Preemergence; for Barnyardgrass plant response rating: 125 g ai/ha, visual injury on 0 to 100 scale (0 no effect, 100 complete control), approximately 10 days; for Plant response rating, Barnyardgrass: 0 to 100 scale (0 no effect, 100 complete control)
Method in brief: (§1)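 Greenhouse pot test in a loam–sand blend; compounds delivered in a non-phytotoxic solvent carrying a surfactant, applied either as a directed spray to soil at seeding or over seedlings 2 to 10 cm high with one to two leaves.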

[2] = test system: pigweed (Amaranthus retroflexus); experiment: Test A postemergence, pigweed; details: Postemergence; for Pigweed plant response rating: 500 g ai/ha, visual injury vs untreated controls after approx. 10 days
Method in brief: as §1

[3] = test system: corn (Zea mays); experiment: Test A postemergence, corn; details: Postemergence; for Corn plant response rating: 500 g ai/ha, visual injury vs untreated controls after approx. 10 days
Method in brief: as §1

[4] = test system: Ryegrass, Italian (Italian ryegrass, Lolium multiflorum); experiment: Test A postemergence, Ryegrass, Italian; details: Postemergence; for Ryegrass, Italian plant response rating: 500 g ai/ha, visual injury vs untreated controls after approx. 10 days
Method in brief: as §1

[5] = test system: pigweed (Amaranthus retroflexus); experiment: Test A preemergence, pigweed; details: for Pigweed plant response rating: 125 g ai/ha, visual injury on 0 to 100 scale (0 no effect, 100 complete control), approximately 10 days; for Plant response rating, Pigweed: 0 to 100 scale (0 no effect, 100 complete control)
Method in brief: as §1

[6] = test system: ragweed (common ragweed, Ambrosia artemisiifolia); experiment: Test A preemergence, ragweed; details: Preemergence; for Ragweed plant response rating: 125 g ai/ha, visual injury on 0 to 100 scale (0 no effect, 100 complete control), approximately 10 days; for Plant response rating, Ragweed: 0 to 100 scale (0 no effect, 100 complete control)
Method in brief: as §1

[7] = test system: barnyardgrass (Echinochloa crus-galli); experiment: Test A postemergence, barnyardgrass; details: Postemergence; for Barnyardgrass plant response rating: 500 g ai/ha, visual injury vs untreated controls after approx. 10 days
Method in brief: as §1

[8] = test system: ragweed (common ragweed, Ambrosia artemisiifolia); experiment: Test A postemergence, ragweed; details: Postemergence; for Ragweed plant response rating: 500 g ai/ha, visual injury vs untreated controls after approx. 10 days
Method in brief: as §1

[9] = test system: galium (catchweed bedstraw, Galium aparine); experiment: Test A postemergence, galium; details: Postemergence; for Galium plant response rating: 500 g ai/ha, visual injury vs untreated controls after approx. 10 days
Method in brief: as §1

[10] = test system: kochia (Bassia scoparia); experiment: Test A postemergence, kochia; details: Postemergence; for Kochia plant response rating: 500 g ai/ha, visual injury vs untreated controls after approx. 10 days
Method in brief: as §1

[11] = test system: blackgrass (Alopecurus myosuroides); experiment: Test A postemergence, blackgrass; details: Postemergence; for Blackgrass plant response rating: 500 g ai/ha, visual injury vs untreated controls after approx. 10 days
Method in brief: as §1

[12] = test system: Foxtail, Giant (giant foxtail, Setaria faberi); experiment: Test A postemergence, Foxtail, Giant; details: Postemergence; for Foxtail, Giant plant response rating: 500 g ai/ha, visual injury vs untreated controls after approx. 10 days
Method in brief: as §1

[13] = test system: kochia (Bassia scoparia); experiment: Test A preemergence, kochia; details: Preemergence; for Kochia plant response rating: 125 g ai/ha, visual injury on 0 to 100 scale (0 no effect, 100 complete control), approximately 10 days; for Plant response rating, Kochia: 0 to 100 scale (0 no effect, 100 complete control)
Method in brief: as §1

[14] = test system: Ryegrass, Italian (Italian ryegrass, Lolium multiflorum); experiment: Test A preemergence, Ryegrass, Italian; details: Preemergence; for Ryegrass, Italian plant response rating: 125 g ai/ha, visual injury on 0 to 100 scale (0 no effect, 100 complete control), approximately 10 days; for Plant response rating, Ryegrass, Italian: 0 to 100 scale (0 no effect, 100 complete control)
Method in brief: as §1

[15] = test system: wheat (Triticum aestivum); experiment: Test A postemergence, wheat; details: Postemergence; for Wheat plant response rating: 500 g ai/ha, visual injury vs untreated controls after approx. 10 days
Method in brief: as §1

[16] = test system: Foxtail, Giant (giant foxtail, Setaria faberi); experiment: Test A preemergence, Foxtail, Giant; details: Preemergence; for Foxtail, Giant plant response rating: 125 g ai/ha, visual injury on 0 to 100 scale (0 no effect, 100 complete control), approximately 10 days; for Plant response rating, Foxtail, Giant: 0 to 100 scale (0 no effect, 100 complete control)
Method in brief: as §1

[17] = 125 g ai/ha, 0 to 100 scale (0 no effect, 100 complete control)
[18] = 0 to 100 scale (0 no effect, 100 complete control)
[19] = 31 g ai/ha, visual injury, approx. 10 days
[20] = 31 g ai/ha, visual injury on 0 to 100 scale (0 no effect, 100 complete control), approx. 10 days

Cc1cc(C)c(N(S(=O)(=O)C(F)(F)F)S(=O)(=O)C(F)(F)F)cc1C1=NOC2(CCCCCC2)C1 [Compound 158]
20: Corn plant response rating [3, 18] | Barnyardgrass plant response rating [7, 18] | Ragweed plant response rating [8, 18] | Plant response rating, Kochia [10, 17] | Plant response rating, Blackgrass [11, 17] | Foxtail, Giant plant response rating [12, 18]
40: Plant response rating, Ragweed ([6]; 500 g ai/ha)
70: Plant response rating, Galium [9, 17] | Kochia plant response rating [13]
30: Barnyardgrass plant response rating [1] | Plant response rating, Pigweed [2, 17] | Ragweed plant response rating [6] | Kochia plant response rating [10, 18] | Ryegrass, Italian plant response rating [14]
100: Plant response rating, Barnyardgrass ([1]; 500 g ai/ha) | Plant response rating, Pigweed ([5]; 500 g ai/ha) | Plant response rating, Ryegrass, Italian ([14]; 500 g ai/ha) | Plant response rating, Foxtail, Giant ([16]; 500 g ai/ha)
90: Galium plant response rating [9, 18] | Foxtail, Giant plant response rating [16]
10: Plant response rating, Ragweed [8, 17]
0: Plant response rating, Corn [3, 17] | Plant response rating, Ryegrass, Italian [4, 17] | Ryegrass, Italian plant response rating [4, 18] | Plant response rating, Barnyardgrass [7, 17] | Blackgrass plant response rating [11, 18] | Plant response rating, Foxtail, Giant [12, 17] | Plant response rating, Wheat [15, 17] | Wheat plant response rating [15, 18]
50: Pigweed plant response rating [5]
80: Pigweed plant response rating [2, 18] | Plant response rating, Kochia ([13]; 500 g ai/ha)

Cc1cc(C)c(C(=O)N2CCCOCC2)cc1NS(=O)(=O)C(F)(F)F [Compound 160]
10: Corn plant response rating [3, 18] | Ragweed plant response rating [6] | Plant response rating, Kochia [10, 17] | Blackgrass plant response rating [11, 18]
20: Kochia plant response rating [13] | Wheat plant response rating [15, 18]
70: Plant response rating, Pigweed [2, 17] | Plant response rating, Ragweed [8, 17]
80: Barnyardgrass plant response rating [1] | Barnyardgrass plant response rating [7, 18] | Ragweed plant response rating [8, 18] | Plant response rating, Galium [9, 17]
100: Plant response rating, Barnyardgrass ([1]; 500 g ai/ha) | Plant response rating, Pigweed ([5]; 500 g ai/ha) | Plant response rating, Foxtail, Giant ([16]; 500 g ai/ha)
60: Foxtail, Giant plant response rating [12, 18] | Plant response rating, Ryegrass, Italian ([14]; 500 g ai/ha)
30: Plant response rating, Barnyardgrass [7, 17] | Kochia plant response rating [10, 18]
90: Pigweed plant response rating [2, 18] | Pigweed plant response rating [5] | Plant response rating, Ragweed ([6]; 500 g ai/ha) | Galium plant response rating [9, 18] | Plant response rating, Kochia ([13]; 500 g ai/ha) | Foxtail, Giant plant response rating [16]
50: Ryegrass, Italian plant response rating [14]
0: Plant response rating, Corn [3, 17] | Plant response rating, Ryegrass, Italian [4, 17] | Ryegrass, Italian plant response rating [4, 18] | Plant response rating, Blackgrass [11, 17] | Plant response rating, Foxtail, Giant [12, 17] | Plant response rating, Wheat [15, 17]

Cc1cc(C)c(N(S(=O)(=O)C(F)(F)F)S(=O)(=O)C(F)(F)F)cc1C(=O)N1CCC(C#N)CC1 [Compound 161]
20: Plant response rating, Barnyardgrass [1, 19] | Plant response rating, Ryegrass, Italian [4, 20] | Plant response rating, Ryegrass, Italian [4, 17] | Plant response rating, Foxtail, Giant [12, 17]
80: Plant response rating, Pigweed [2, 17] | Plant response rating, Barnyardgrass [7, 17] | Foxtail, Giant plant response rating [16]
40: Plant response rating, Barnyardgrass [7, 20] | Plant response rating, Ragweed [8, 20] | Plant response rating, Foxtail, Giant [16, 19]
70: Plant response rating, Pigweed [2, 20] | Plant response rating, Pigweed [5, 19] | Plant response rating, Ragweed [8, 17] | Plant response rating, Ryegrass, Italian [14, 19]
0: Plant response rating, Blackgrass [11, 20] | Plant response rating, Blackgrass [11, 17] | Plant response rating, Foxtail, Giant [12, 20] | Plant response rating, Wheat [15, 20] | Plant response rating, Wheat [15, 17]
100: Barnyardgrass plant response rating [1] | Pigweed plant response rating [5] | Ryegrass, Italian plant response rating [14]
30: Plant response rating, Galium [9, 20] | Plant response rating, Kochia [13, 19]
50: Plant response rating, Corn [3, 17] | Plant response rating, Kochia [10, 17]
90: Plant response rating, Ragweed [6, 19] | Ragweed plant response rating [6] | Plant response rating, Galium [9, 17] | Kochia plant response rating [13]
10: Plant response rating, Corn [3, 20] | Plant response rating, Kochia [10, 20]
